The text below walks through data of patent publication US8951789B2, “Mammalian artificial chromosome vector comprising human cytochrome P450 gene (cluster) and non-human mammalian animal retaining the same” (National University Corporation Tottori University, priority 2007, dated 2015).

Series [1] relates to CYP3A/Cyp3a. Nature of the series: Midazolam metabolites in mouse liver microsomes by LC-MS/MS. As to conditions: 10 μM midazolam. As for the experimental part: (§1) In order to investigate whether or not a human-specific metabolite of midazolam, which is known to be metabolized by CYP3A/Cyp3a, is observed in the TC (CYP3A-HACΔ)/Δcyp mouse as in the case of a human, microsomes derived from the liver of the TC(CYP3A-HACΔ)/Δcyp mouse, the Δcyp mouse, the B6 normal mouse, and the human were allowed to react with midazolam, and mass analysis was carried out via LC-MS/MS in the following manner. […] The reaction was terminated with the addition of acetonitrile, the mixture was centrifuged at 3,000 rpm for 5 minutes, and the supernatant was separated. The solvent was removed therefrom by distillation under a nitrogen stream at 40° C., the dried extract was redissolved in acetonitrile, and mass analysis was carried out by LC-MS/MS

Series [2] has as its system CYP3A/Cyp3a. The experiment in a line: Midazolam metabolites in human liver microsomes by LC-MS/MS. As to conditions: 10 μM midazolam, 37° C. 30 minutes. The method, then: as §1
For series [3], the system named is CYP3A/Cyp3a expression. The experiment in a line: Induction of CYP3A/Cyp3a expression by PCN, Western blot of liver microsome fractions. As for the experimental part:
In order to investigate the influence of pregnenolone 16α-carbonitrile (PCN) (Sigma), which is known as a substance inducing CYP3A/Cyp3a expression, on CYP3A/Cyp3a gene expression in TC(CYP3A-HACΔ)/Δcyp, Δcyp, and B6 normal mice, PCN was administered intraperitoneally for 4 days in amounts of 100 mg/kg per dose. A suspension of PCN in corn oil (Sigma) was prepared for administration.

For series [4], the system named is CYP3A4.

Take `Cc1ncc2n1-c1ccc(Cl)cc1C(c1ccccc1F)=NC2` [midazolam]: the “human-specific metabolite (10.22)” value in series [1] (TC(CYP3A-HACΔ)/Δcyp mouse liver microsomes, 37° C. 30 minutes) is “detected”; in series [2] it was “detected”. For the same compound, in series [1] (all microsomes (TC(CYP3A-HACΔ)/Δcyp, Δcyp, B6 normal mouse, human)), the “main metabolite (10.62)” value is “detected in all microsomes”.
Consider `CC(=O)[C@H]1[C@H](C#N)C[C@H]2[C@@H]3CC=C4C[C@@H](O)CC[C@]4(C)[C@H]3CC[C@@]21C` [PCN, pregnenolone 16α-carbonitrile], for which the “CYP3A expression level compared with corn oil mice of the same strain” value in series [3] (B6 normal mice, 100 mg/kg intraperitoneally for 4 days, liver on day 5) was “elevated”. In series [3] (mouse, in vivo, ip, 100 mg/kg), the CYP3A expression result is given as “not observed” and the “CYP3A expression level compared with corn oil mice of the same strain” value is “elevated”. In series [4], the “metabolic activity (triazolam hydroxylation) of liver microsomes, PCN-administered versus corn oil-administered mice” value was found to be 10 times.
